T1: MCUb-NTD (MCUb58-159) (Homo sapiens, UniProt Q9NWR8)
T1 construct: N-terminal domain, residues 58-159; pET-28a, E. coli BL21(DE3) codon plus; N-terminal 6xHis tag cut with thrombin
T1 sequence (Q9NWR8 58-159): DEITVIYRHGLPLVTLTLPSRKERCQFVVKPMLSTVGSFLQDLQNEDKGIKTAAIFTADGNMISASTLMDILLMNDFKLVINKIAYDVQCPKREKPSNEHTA

T2: MCU-NTD-fluorescein (MCU residues 72-189 labelled with fluorescein-MTS at Cys97) (human, UniProt Q8NE86-1 72-189, fluorescein (fluorescein-methane thiosulfonate) on Cys97)
T2 construct: mitochondrial calcium uniporter (MCU), Homo sapiens, GenBank NP_612366.1, residues 72-189 (amino-terminal domain); Same chain as m2, with the label; also called fluorescein-MCU-NTD; MCU_(72-189) labeled
T2 sequence (looked up): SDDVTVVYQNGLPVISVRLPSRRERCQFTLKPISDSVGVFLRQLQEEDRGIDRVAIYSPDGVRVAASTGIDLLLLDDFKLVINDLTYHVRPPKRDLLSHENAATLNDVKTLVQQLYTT


Assays:
MCUb-NTD (MCUb58-159) = molecular target: T1, MCUb-NTD (MCUb58-159); assay: ANS fluorescence titration, one-site fit; format: binding; conditions: read-out: apparent KD
[1] = molecular target: T2, MCU-NTD-fluorescein (MCU residues …); assay: other fluorescence titration; steady-state fluorescein fluorescence; 0.1 uM MCU-NTD-fluorescein titrated with MCUb-NTD; 20 mM Tris (pH 8.5), 150 mM NaCl, 1 mM DTT, 0.0001% (v/v) NP-40, 22.5°C; one-site model; conditions: both partners purified

Kd (MCUb-NTD (MCUb58-159)) [nM] | Kd [1] [nM] | Molecule
1500 ± 600 |  | O=S(=O)(O)c1cccc2cccc(Nc3ccccc3)c12 [ANS, 8-Anilinonapthalene 1-sulfonic acid]
 | 125 | MCUb amino-terminal domain (MCUb-NTD), MCUb residues 58-159 (domain or fragment, human, UniProt Q9NWR8 58-159, looked up, MCU dominant negative beta subunit (MCUb), Homo sapiens, GenBank NP_060388.2, residues 58-159 (amino-terminal domain); Cloned into pET-28a by NheI and XhoI; printed as 6xHis-MCUb_(58-159); theoretical monomer mass 12.0098 kDa and 107 expected backbone amides are printed, so a few vector residues probably remain after thrombin cleavage (surmise); also called MCUb_(58-159); 15N-MCUb-NTD; source: E. …) DEITVIYRHGLPLVTLTLPSRKERCQFVVKPMLSTVGSFLQDLQNEDKGIKTAAIFTADGNMISASTLMDILLMNDFKLVINKIAYDVQCPKREKPSNEHTA
